Results as given in US12378234B2, “Crystalline polymorphs of a 1-thiazol-2-yl-pyrazole-5-carboxylic acid derivative” (Bantam Pharmaceutical, LLC, priority 2019, dated 2025).
Converted amounts (≈) assume the structure as drawn.

How the values were obtained:
Assay type in all cases: physicochemical
[1] = Solubility of crystalline polymorph in biologically relevant media (water, SGF, FaSSIF, FeSSIF), HPLC of supernatant, pH, XRPD of remaining solids; conditions: for solubility at 1 h / solubility at 4 h / solubility at 24 h: thermodynamic from solid, 37° C.; for pH: solubility test
Protocol: The solubility of crystalline polymorph Form 1 was tested in biologically relevant media: water, simulated gastric fluid (SGF), fasted state simulated intestinal fluid (FaSSIF) and fed state simulated intestinal fluid (FeSSIF). For example, the crystalline polymorph was suspended in the solvent with stirring at 400 rpm at 37° C. for 1 h, 4 h and 24 h followed by filtration. The supernatant concentration was measured by HPLC (Mobile phase A: 0.1% NH3 in H2O, Mobile phase B: acetonitrile; flow rate: 0.8 mL/min; injection volume: 5 μL). The remaining solids were tested by XRPD.
The solubility of crystalline polymorph Form 11 was tested in biologically relevant media: water, SGF, FaSSIF, and FeSSIF. For example, the crystalline polymorph was suspended in the solvent with stirring at 400 rpm at 37° C. for 1 h, 4 h and 24 h followed by filtration. The supernatant was measured by HPLC for concentration and the remaining solids were tested by XRPD.

[2] = Slurry conversion (competitive) experiments for thermodynamic stability relationship; conditions: slurry of Form 1:Form 5 (1:1) in H2O:acetone (9:1) or H2O:ethanol (3:1), room temperature, 2 or 3 days
Protocol: To determine the thermodynamic stability relationship between Form 1 and Form 5, slurry conversion experiments were conducted. Specifically, Form 1 sample was added to 1.0 mL H2O:acetone (9:1 v:v) or 0.8 mL of H2O:ethanol (3:1 v:v) at room temperature. After equilibrium for 1 hr, the suspensions were filtered to obtain a saturated solution Form 1. To each saturated solution of Form 1:Form 5 (1:1) was added. After stirring at room temperature for 2 or 3 days, the solids were isolated for XRPD analysis.
To determine the thermodynamic stability relationship between Form 11 and Form 12, slurry conversion experiments were conducted. Specifically, Form 12 (2.5 mg) was added to 1.0 mL of 4% dichloromethane at room temperature. After equilibrium for 1 hour, the suspensions were filtered to obtain a saturated solution Form 12. To the saturated solution of Form 11:Form 12 (1:1) was added. After stirring at room temperature for 30 minutes, the solids were isolated for XRPD analysis. […] The pH of Form 11 solution (2.5 mg in 1 mL of 4% dichloromethane) and Form 12 solution (2.5 mg in 1 mL of 4% dichloromethane) was measured to be 8.25 and 7.98, respectively.

[3] = Physical and chemical stability under stressed conditions (HPLC, XRPD); conditions: 40° C./75% RH for 1 week
Protocol: Physical and chemical stability evaluation has been performed for crystalline polymorph Form 1 under stressed conditions. In the experiments, about 10 mg of the polymorph was placed into 4 ml glass vials that were stored under 40° C./75% RH for 1 week. HPLC was utilized to evaluate the degradation, and XPRD was used to evaluate the crystalline polymorph.

[4] = Dynamic vapor sorption (DVS)
Protocol: TGA and DSC measurements indicated weight loss of 0.1% at 150° C. and an endothermic peak at 120.0° C.
Dynamic Vapor Sorption (DVS) was measured with a SMS DVS Intrinsic from Surface Measurement Systems (London, United Kingdom) using the following parameters: temperature: 25° C.; sample size: 10-20 mg; gas and flow rate: N2 and 200 mL/min; dm/dt: 0.002%/min; min. dm/dt stability duration: 10 min; max. equilibrium time: 180 min; relative humidity (RH) range: 0% RH-95% RH-0% RH; RH step size: 10%.

In the case of `Cc1nn(-c2nc(C3=CCC(C(F)(F)F)CC3)c(SC(C)C)s2)c(C(=O)O)c1-c1cccc(F)c1` (stereo not drawn) [Form 1, 4-(3-fluorophenyl)-1-(5-(isopropylthio)-4-(4-(trifluoromethyl)cyclohex-1-en-1-yl)thiazol-2-yl)-3-methyl-1H-pyrazole-5-carboxylic acid], the “Form change by XRPD of remaining solids” value ([1]; after solubility test in FaSSIF) is reported as “one unknown peak was observed at about 31 2θ degrees”, the “Form change by XRPD of remaining solids” value ([1]; after solubility test in FeSSIF) is reported as “no form change was observed” and the “Form change by XRPD of remaining solids” value ([1]; after solubility test in SGF) is reported as “no form change was observed”. For the same compound, the “Form change by XRPD of remaining solids” value ([1]; after solubility test in water) was “no form change was observed”, the solubility at 1 h ([1]; fasted state simulated intestinal fluid (FaSSIF), FaSSIF, 1 hr) was 140 µg/mL (≈ 266 µM) and the solubility at 4 h ([1]; fasted state simulated intestinal fluid (FaSSIF), FaSSIF, 4 hr) was 220 µg/mL (≈ 419 µM). It also gave a solubility at 24 h ([1]; fasted state simulated intestinal fluid (FaSSIF), FaSSIF, 24 hr) of 200 µg/mL (≈ 381 µM), a solubility at 1 h ([1]; fed state simulated intestinal fluid (FeSSIF), FeSSIF, 1 hr) of 170 µg/mL (≈ 323 µM) and a solubility at 4 h ([1]; fed state simulated intestinal fluid (FeSSIF), FeSSIF, 4 hr) of 180 µg/mL (≈ 342 µM). It also gave a solubility at 24 h ([1]; fed state simulated intestinal fluid (FeSSIF), FeSSIF, 24 hr) of 140 µg/mL (≈ 266 µM), a solubility at 1 h ([1]; simulated gastric fluid (SGF), simulated gastric fluid, SGF, 1 hr) of 50 µg/mL (≈ 95.1 µM) and a solubility at 4 h ([1]; simulated gastric fluid (SGF), simulated gastric fluid, SGF, 4 hr) of 30 µg/mL (≈ 57.1 µM). It also gave a solubility at 24 h ([1]; simulated gastric fluid (SGF), simulated gastric fluid, SGF, 24 hr) of 30 µg/mL (≈ 57.1 µM), a pH ([1]; FaSSIF, 1 hr) of 6.55 and a pH ([1]; FaSSIF, 4 hr) of 5.75. It also gave a pH ([1]; FaSSIF, 24 hr) of 5.12, a pH ([1]; FeSSIF, 1 hr) of 5.07 and a pH ([1]; FeSSIF, 4 hr) of 5.06. For the same compound, the pH ([1]; FeSSIF, 24 hr) was 4.94, the pH ([1]; H2O, 1 hr) was 7.00 and the pH ([1]; H2O, 4 hr) was 7.82. For the same compound, the pH ([1]; H2O, 24 hr) was 6.68, the pH ([1]; SGF, 1 hr) was 1.93 and the pH ([1]; SGF, 4 hr) was 1.75. It also gave a pH ([1]; SGF, 24 hr) of 1.83, a solubility at 1 h ([1]; water, H2O, 1 hr) of 490 µg/mL (≈ 932 µM) and a solubility at 4 h ([1]; water, H2O, 4 hr) of 1300 µg/mL (≈ 2470 µM). For the same compound, the solubility at 24 h ([1]; water, H2O, 24 hr) was 1700 µg/mL (≈ 3230 µM), the “thermodynamic stability relationship between Form 1 and Form 5” value [2] was “more thermodynamically stable than Form 5” and the “physical and chemical stability” value [3] was “physically stable”. For the same compound, the “water uptake (DVS)” value ([4]; 25° C./80% relative humidity) was 0.6%, the “form change before and after DVS” value ([4]; XRPD, FIG. 1E) was “no form change was observed” and the hygroscopicity ([4]; from DVS at 25° C./80% relative humidity) was “slightly hygroscopic”.
